Here are results for 16 compounds from patent US8791132B2, “Compounds and methods for treatment of hypertension” (Medivation Technologies, Inc., priority 2011, dated 2014).

The structures appear in SMILES notation. Like-named read-outs stand apart in the source and are kept apart here.

Assay [1] addresses T1, human recombinant adrenergic α1D receptor (Homo sapiens, UniProt P25100).
T1 construct: expressed in transfected cells; host or cells: HEK-293
T1 sequence (P25100 1-572): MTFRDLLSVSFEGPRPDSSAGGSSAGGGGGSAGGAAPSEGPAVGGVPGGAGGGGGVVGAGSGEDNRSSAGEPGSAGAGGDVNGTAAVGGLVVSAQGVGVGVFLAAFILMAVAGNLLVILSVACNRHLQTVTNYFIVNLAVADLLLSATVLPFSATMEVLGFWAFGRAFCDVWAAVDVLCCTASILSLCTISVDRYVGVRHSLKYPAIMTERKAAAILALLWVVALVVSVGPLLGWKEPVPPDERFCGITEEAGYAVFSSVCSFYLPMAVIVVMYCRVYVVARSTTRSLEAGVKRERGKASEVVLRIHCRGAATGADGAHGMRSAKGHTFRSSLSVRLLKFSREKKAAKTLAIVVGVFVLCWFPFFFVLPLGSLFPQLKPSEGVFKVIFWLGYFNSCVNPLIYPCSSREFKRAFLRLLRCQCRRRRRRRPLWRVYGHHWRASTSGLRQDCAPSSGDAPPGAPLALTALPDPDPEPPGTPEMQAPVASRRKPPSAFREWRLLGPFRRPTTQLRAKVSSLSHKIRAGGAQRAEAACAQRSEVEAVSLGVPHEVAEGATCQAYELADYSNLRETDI
In words: Radioligand binding, adrenergic α1D ([3H]Prazosin). Here is the method:
Compounds were incubated with 0.6 nM [3H]Prazosin for 60 min at 25° C. Non-specific binding was estimated in the presence of 10 μM phentolamine. Receptor proteins were filtered and washed, the filters were then counted to determine [3H]Prazosin specifically bound. […] Biochemical assay results are presented as the percent inhibition of specific binding in Table B1.

Assay [2] deals with T2, human recombinant adrenergic α2B receptor (Homo sapiens, UniProt P18089).
T2 construct: expressed in transfected cells; host or cells: CHO-K1
T2 sequence (P18089 1-450): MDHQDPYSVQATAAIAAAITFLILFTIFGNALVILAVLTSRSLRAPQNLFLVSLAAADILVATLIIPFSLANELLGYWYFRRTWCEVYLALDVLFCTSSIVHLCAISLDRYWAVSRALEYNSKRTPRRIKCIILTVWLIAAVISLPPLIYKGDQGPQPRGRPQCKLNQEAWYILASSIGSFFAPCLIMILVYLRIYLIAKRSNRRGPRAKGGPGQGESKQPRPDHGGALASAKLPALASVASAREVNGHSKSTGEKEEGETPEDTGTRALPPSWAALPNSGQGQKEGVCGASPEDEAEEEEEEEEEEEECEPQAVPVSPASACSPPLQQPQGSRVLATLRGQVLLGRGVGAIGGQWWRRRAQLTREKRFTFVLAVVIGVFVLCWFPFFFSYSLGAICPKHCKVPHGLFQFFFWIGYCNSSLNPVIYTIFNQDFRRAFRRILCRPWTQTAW
In words: Radioligand binding, adrenergic α2B ([3H]Rauwolscine). The method in brief: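 Assay used CHO-K1-expressed human α2B receptor in Tris-HCl pH 7.4 buffer with MgCl2, EDTA and BSA; 60 min incubation at 25 °C.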

Assay [3] has as its target T3, rat adrenergic α1B receptor (Rattus norvegicus, UniProt P15823).
T3 construct: rat adrenergic α1B receptor obtained from Wistar Rat liver; from tissue; host or cells: Wistar rat liver
T3 sequence (P15823 1-515): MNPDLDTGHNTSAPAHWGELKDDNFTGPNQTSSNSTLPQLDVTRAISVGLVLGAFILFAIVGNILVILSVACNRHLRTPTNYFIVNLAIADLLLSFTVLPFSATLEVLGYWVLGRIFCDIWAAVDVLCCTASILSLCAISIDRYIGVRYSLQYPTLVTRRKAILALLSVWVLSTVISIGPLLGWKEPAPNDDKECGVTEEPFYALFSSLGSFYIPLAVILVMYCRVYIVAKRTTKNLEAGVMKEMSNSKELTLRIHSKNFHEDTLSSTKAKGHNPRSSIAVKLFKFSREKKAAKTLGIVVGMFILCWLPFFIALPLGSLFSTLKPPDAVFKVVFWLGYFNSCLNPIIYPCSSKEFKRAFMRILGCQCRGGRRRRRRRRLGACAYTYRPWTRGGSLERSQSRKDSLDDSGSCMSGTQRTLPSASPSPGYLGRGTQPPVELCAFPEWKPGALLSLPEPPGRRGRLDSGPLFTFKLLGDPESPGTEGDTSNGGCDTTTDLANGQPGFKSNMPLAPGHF
Nature of the assay: Radioligand binding, adrenergic α1B ([3H]Prazosin). The essentials: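 Filter binding with Wistar rat liver α1B preparation: test compound plus 0.25 nM [3H]prazosin, 1 h at 25° C in modified Tris-HCl buffer pH 7.4.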

Assay [4] addresses T4, human recombinant adrenergic α2A receptor (Homo sapiens, UniProt P08913).
T4 construct: expressed in transfected cells; host or cells: insect Sf9 cells
T4 sequence (P08913 1-465): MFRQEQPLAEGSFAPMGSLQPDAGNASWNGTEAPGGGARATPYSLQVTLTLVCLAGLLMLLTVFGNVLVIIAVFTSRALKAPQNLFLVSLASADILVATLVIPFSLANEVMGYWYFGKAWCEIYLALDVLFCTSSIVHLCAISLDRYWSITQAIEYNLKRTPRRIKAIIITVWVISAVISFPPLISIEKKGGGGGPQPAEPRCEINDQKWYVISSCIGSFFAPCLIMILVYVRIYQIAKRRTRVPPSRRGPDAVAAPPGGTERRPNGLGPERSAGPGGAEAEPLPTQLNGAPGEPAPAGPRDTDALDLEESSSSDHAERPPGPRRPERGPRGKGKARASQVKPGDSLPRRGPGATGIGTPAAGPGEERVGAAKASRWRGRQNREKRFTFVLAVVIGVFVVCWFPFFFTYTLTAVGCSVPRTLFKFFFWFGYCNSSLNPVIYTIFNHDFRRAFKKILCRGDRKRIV
Nature of the assay: Radioligand binding, adrenergic α2A ([3H]MK-912). As to conditions: for inhibition at 0.03 µM: read-out: Percentage inhibition of ligand binding, Adrenergic α2A (0.03 μM), compound at 0.03 μM. The essentials:
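Receptor expressed in insect Sf9 cells, assayed in 50 mM Tris-HCl pH 7.4 with 12.5 mM MgCl2 and 2 mM EDTA. Compounds incubated with 1 nM [3H]MK-912 for 60 min at 25 °C; nonspecific binding defined with 10 μM WB-4101. Filter-bound radioactivity counted; values are percent inhibition of specific binding.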

Setting [5] is: compound at 0.1 μM, [3H]Prazosin, repeat assays, each datapoint shown, read-out: Percentage inhibition of ligand binding, Adrenergic α1D.
Setting [6] is: read-out: Percentage inhibition of ligand binding, Adrenergic α1B (0.1 μM), compound at 0.1 μM, [3H]Prazosin, repeat datapoints each shown.
The mark [7] stands for this setting: read-out: Percentage inhibition of ligand binding, Adrenergic α2B (0.03 μM), compound at 0.03 μM, [3H]Rauwolscine, repeat datapoints each shown.
[8] abbreviates: read-out: Percentage inhibition of ligand binding, Adrenergic α2B (0.1 μM), compound at 0.1 μM, [3H]Rauwolscine, repeat datapoints each shown.
The mark [9] stands for this setting: compound at 0.1 μM, [3H]Rauwolscine, repeat assays, each datapoint shown, read-out: Percentage inhibition of ligand binding, Adrenergic α2B.
Setting [10] is: read-out: Percentage inhibition of ligand binding, Adrenergic α2A (0.1 μM), compound at 0.1 μM, [3H]MK-912, repeat datapoints each shown.
[11] abbreviates: [3H]MK-912, repeat datapoints each shown.
Where [12] appears, read: 0.1 μM compound, read-out: Percentage inhibition of ligand binding, Adrenergic α2A.
Setting [13] is: 0.1 μM compound, read-out: Percentage inhibition of ligand binding, Adrenergic α1B.
The mark [14] stands for this setting: 0.03 μM compound, read-out: Percentage inhibition of ligand binding, Adrenergic α2B.

As a reminder, the inhibition is the relative decrease from the control value, in per cent. As to `Cc1ccc2c(c1)c1c(n2CC(C)c2ccc(F)cc2)CCN(C)C1` (single isomer, unassigned) [288a], the “Percentage inhibition of ligand binding, Adrenergic α1D” value in assay [1] (0.1 μM compound, 0.1 µM) is reported as 88%. Besides, the inhibition at 0.1 µM in assay [2] (0.1 μM compound, read-out: Percentage inhibition of ligand binding, Adrenergic α2B) was found to be 104%.

As for `CCCCC(O)(Cn1c2c(c3cc(Cl)ccc31)CN(C)CC2)c1ccc(F)cc1` (centres unmarked) [33a], the inhibition at 0.1 µM in assay [1] (setting [5]) was 23%.

With `CCC(O)(Cn1c2c(c3cc(Cl)ccc31)CN(C)CC2)c1ccc(F)cc1` (centres unmarked) [II-160], in assay [3] (compound at 0.1 μM, [3H]Prazosin, repeat datapoints each shown, 0.1 µM), the “Percentage inhibition of ligand binding, Adrenergic α1B (0.1 μM)” value came to 14%. Moreover, the inhibition at 0.1 µM in assay [3] (setting [6]) turned out to be 7%; in assay [1] (read-out: Percentage inhibition of ligand binding, Adrenergic α1D (0.1 μM), compound at 0.1 μM, [3H]Prazosin, repeat datapoints each shown), 15%; in assay [2] (setting [8]), 35%. Besides, the inhibition at 0.03 µM in assay [2] (setting [7]) worked out at 39%.

As for `Cc1ccc2c(c1)c1c(n2CC(O)c2ccc(F)cc2)CCN(C)C1` (centres unmarked) [compound 30], the inhibition at 0.1 µM was 49% in assay [1] (setting [5]) and 91% in assay [2] (setting [9]).

`Cc1cnc2c(c1)c1c(n2CCc2ccc(C)nc2)CCN2CCCC12` (centres unmarked) [compound 74, 10-methyl-7-(2-(6-methylpyridin-3-yl)ethyl)-2,3,5,6,7,11c-hexahydro-1H-pyrido[3′,2′:4,5]pyrrolo[2,3-g]indolizine]: the “Percentage inhibition of ligand binding, Adrenergic α2A” value in assay [4] (compound at 0.1 μM, [3H]MK-912, repeat assays, each datapoint shown, 0.1 µM) came out at 6%. The inhibition at 0.1 µM is 57% in assay [1] (setting [5]) and 104% in assay [2] (setting [9]).

Consider `Cc1ccc2c(c1)c1c(n2CC(N)c2ccc(C(N)=O)nc2)CCN(C)C1` (centres unmarked) [compound 157, 5-[1-amino-2-(2,8-dimethyl-1,2,3,4-tetrahydro-pyrido[4,3-b]indol-5-yl)-ethyl]-pyridine-2-carboxylic acid amide], for which the inhibition at 0.1 µM in assay [4] (setting [10]) was 6%; in assay [3] (setting [6]), 57%. Besides, the inhibition at 0.03 µM in assay [2] (setting [7]) turned out to be 43%.

As for `Cc1cnc2c(c1)c1c(n2CC(N)c2ccncc2)CCNC1` (centres unmarked) [compound 158], the inhibition at 0.1 µM was -1% in assay [4] (setting [10]) and 8% in assay [3] (setting [6]). Moreover, the inhibition at 0.03 µM in assay [2] (setting [7]) came to 43%.

Consider `Cc1ccc2c(c1)c1c(n2CC(O)c2ccnc(C(=O)O)c2)CCN2CCCC12` (centres unmarked) [compound 168], for which the inhibition at 0.1 µM in assay [4] (setting [10]) amounted to 16%; in assay [3] (setting [6]), 23%. Further, the inhibition at 0.03 µM in assay [2] (setting [7]) worked out at 32%.

`Cc1ccc2c(c1)c1c(n2CC(C)(O)c2ccc(C(=O)O)nc2)CCN(C)C1` (centres unmarked) [compound 169, 5-(1-(1,2,3,4-tetrahydro-2,8-dimethylpyrido[4,3-b]indol-5-yl)-2-hydroxypropan-2-yl)pyridine-2-carboxylic acid]: the inhibition at 0.1 µM stood at 15% in assay [4] (setting [10]) and 2% in assay [3] (setting [6]). Also, the inhibition at 0.03 µM in assay [2] (setting [7]) was determined as 20%.

On to `Cc1ccc2c(c1)c1c(n2CC(C)(O)c2cnccc2C(=O)O)CCN(C)C1` (centres unmarked) [compound 179], for which the inhibition at 0.1 µM in assay [4] (setting [10]) and in assay [3] (setting [6]) was 6% in each case. Also, the inhibition at 0.03 µM in assay [2] (setting [7]) was 8%.

In general, Ki refers to the equilibrium dissociation constant of an inhibitor or competing ligand from its target. For the compound `CN1CCc2c(c3c(Cl)cccc3n2CCc2ccccc2)C1` [compound 214], the results for the Ki in assay [4] and in assay [2] (read-out: Ki α2B) were 0.0227 µM and 0.0129 µM, respectively. For the same compound, the “Percentage inhibition of ligand binding, Adrenergic α2A (0.1 μM)” value in assay [4] (compound at 0.1 μM, [3H]MK-912, repeat datapoints each shown, 0.1 µM) is 64%. The values for the inhibition at 0.03 µM in assay [4] (setting [11]) and in assay [2] (setting [7]) were 37% and 48%, respectively. In addition, the inhibition at 0.1 µM in assay [4] (setting [10]) turned out to be 58%; in assay [3] (setting [6]), 18%; in assay [2] (setting [8]), 80%.

Turning to `CN1CCc2c(c3cc(Cl)ccc3n2CCc2ccc(F)cc2)C1` [compound 217], the inhibition at 0.1 µM worked out at 74% in assay [4] (setting [10]), 62% in assay [3] (setting [6]) and 102% in assay [2] (setting [8]).

Take `CN1CCc2c(c3cc(F)ccc3n2CCc2ccc(F)cc2)C1` [compound 219]: the inhibition at 0.03 µM in assay [4] (setting [11]) was determined as 69%; in assay [1] (read-out: Percentage inhibition of ligand binding, Adrenergic α1D (0.03 μM), compound at 0.03 μM, [3H]Prazosin, repeat datapoints each shown) it was 3%.

Regarding `CN1CCc2c(c3cc(Cl)ccc3n2CC(O)(c2ccc(F)cc2)C2CC2)C1` (centres unmarked) [compound 223], the inhibition at 0.1 µM was 69% in assay [4] (setting [10]) and 21% in assay [3] (setting [6]). Besides, in assay [2] (setting [7]), the inhibition at 0.03 µM was found to be 47%.

With `Cc1cnc2c(c1)c1c(n2CCc2ccc(F)cc2)CCN2CCCC12` (centres unmarked) [compound 336], the inhibition at 0.1 µM in assay [4] (setting [12]) stood at 66%; in assay [3] (setting [13]), 98%. In assay [2] (setting [14]), the inhibition at 0.03 µM worked out at 104%.

For `CCCCCCC(=O)OC(Cn1c2c(c3cc(C)ccc31)CN(C)CC2)c1ccncc1` (centres unmarked) [compound 338, heptanoic acid 2-(2,8-dimethyl-1,2,3,4-tetrahydro-pyrido[4,3-b]indol-5-yl)-1-pyridin-4-yl-ethyl ester], the inhibition at 0.1 µM in assay [4] (setting [12]) stood at 60%; in assay [3] (setting [13]), 16%. Besides, the inhibition at 0.03 µM in assay [2] (setting [14]) is 102%.
